Target: T1, rh LOXL2 (Homo sapiens, UniProt Q9Y4K0)
T1 sequence (Q9Y4K0 26-774): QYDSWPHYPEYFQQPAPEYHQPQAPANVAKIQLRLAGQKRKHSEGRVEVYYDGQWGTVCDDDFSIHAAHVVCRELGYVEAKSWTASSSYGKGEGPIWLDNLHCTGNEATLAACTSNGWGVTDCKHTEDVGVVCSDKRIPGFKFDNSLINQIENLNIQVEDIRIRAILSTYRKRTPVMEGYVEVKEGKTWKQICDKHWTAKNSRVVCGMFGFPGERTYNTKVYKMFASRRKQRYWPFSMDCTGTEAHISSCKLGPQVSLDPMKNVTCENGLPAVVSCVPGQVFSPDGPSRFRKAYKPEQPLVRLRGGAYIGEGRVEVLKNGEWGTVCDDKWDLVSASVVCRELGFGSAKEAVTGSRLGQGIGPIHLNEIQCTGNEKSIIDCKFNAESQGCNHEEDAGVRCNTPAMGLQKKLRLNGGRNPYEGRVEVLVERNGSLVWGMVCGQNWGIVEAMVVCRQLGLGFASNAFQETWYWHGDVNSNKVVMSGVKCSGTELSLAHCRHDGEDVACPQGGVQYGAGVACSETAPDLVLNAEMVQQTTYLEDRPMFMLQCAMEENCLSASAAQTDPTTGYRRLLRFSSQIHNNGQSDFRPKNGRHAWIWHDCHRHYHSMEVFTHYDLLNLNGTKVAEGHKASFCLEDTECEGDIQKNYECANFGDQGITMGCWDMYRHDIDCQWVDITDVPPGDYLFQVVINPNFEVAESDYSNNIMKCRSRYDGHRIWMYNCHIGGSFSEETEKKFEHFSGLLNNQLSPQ
Test: Jump dilution assay, rh LOXL2
Format: biochemical
Text: FIGURE 1 Characteristics of the activity‐based probe (ABP) PXS‐5878. (A) Chemical structure of PXS‐5878, with functional subunits denoted with different colours. The fluoroallylamine moiety (blue) was designed to interact with the lysine tyrosylquinone (LTQ) co‐factor within the lysyl oxidase active sites. An extended linker (green) was incorporated to provide optimal separation between the reactive functional group and the tag, avoiding unfavourable steric hindrance. Biotin was selected as a tag, with higher sensitivity found to be achieved using a double tag (red), resulting in PXS‐5878 as the preferred ABP. (B) Concentration‐dependent inhibition of recombinant human (rh) lysyl oxidase‐like 1‐4 (LOXL1‐4) and native bovine LOX in a standard Amplex Red assay with 30 min pre‐incubation; n = 3–4 independent experiments, standard error of mean (SEM). Native bovine LOX was used as a surrogate for human LOX as both enzymes have similar pharmacology for fluoroallylamines.[2], [9] (C) Irreversible nature of PXS‐5878 enzyme inhibition confirmed using a jump dilution assay. Enzyme (rh LOXL1, rh LOXL2 or LOXL3) was pre‐incubated with 10 × IC50 of PXS‐5878 for 30 min, then diluted 100x and remaining activity assessed by Amplex Red assay. […] Each value is an average of three experiments. (D) Schematic representation of the assay development to detect lysyl oxidase activity by PXS‐5878 using a direct enzyme‐linked assay with lysyl oxidases as the target analyte. HRP: horseradish peroxidase; TMB: 3,3′,5,5′‐tetramethylbenzidine, a chromogenic substrate. […]
For fluoroallylamine-based inhibitors, replacement of fluorine with hydrogen (leading to the corresponding des-fluoro structures) results in a drop in potency and a switch from irreversible to reversible inhibition. […] (B) For PXS-5878, removal of the fluoro moiety in a simplified analogue results in a significant drop in potency for LOXL2, meaning (ir)reversibility cannot be accurately measured.

- Mode of inhibition (reversible/irreversible) of LOXL2: irreversibly inhibits the enzyme
SMILES: CC(C)c1c(Cc2ccc(S(C)(=O)=O)nc2)c2ncccc2n1C/C(F)=C/CN [PXS‐5338]

From article PMC8571951, “An activity‐based bioprobe differentiates a novel small molecule inhibitor from a LOXL2 antibody and provides renewed promise for anti‐fibrotic therapeutic strategies” (Clinical and Translational Medicine, 2021)
